Species on record: Rattus norvegicus
Experiment: Open TG-GATES - Regimen: Daily Repeat
Format: toxicity, organism-based, Sprague-Dawley
Set-up: regimen Daily Repeat, gender Male, age 6 weeks
Conditions: in vivo, po, route gavage; for Bas / Eos / Fbg / Hb / Ht / MCV / Mono / Neu / Plat / RBC / Ret / WBC / MCHC: tissue Blood; for KIDNEY_L / KIDNEY_R / KIDNEY_TOTAL: tissue Kidney; for LIVER: tissue Liver; for ALP / AST / BUN / CRE / DBIL / GLC / IP / K / LDH / Na / PL / RALB / TBIL / TC / TG / TP / gamma-GTP: tissue Plasma
[1] = 60 mg/kg, 72 h, dose level Middle, time 3 day
[2] = 60 mg/kg, […], dose level Middle, time 7 day
[3] = 60 mg/kg, […], dose level Middle, time 14 day
[4] = 60 mg/kg, […], dose level Middle, time 28 day
[5] = 200 mg/kg, 72 h, dose level High, time 3 day
[6] = 200 mg/kg, […], dose level High, time 7 day
[7] = 200 mg/kg, […], dose level High, time 14 day
[8] = 200 mg/kg, […], dose level High, time 28 day

CO[C@H]1/C=C/O[C@@]2(C)Oc3c(C)c(O)c4c(O)c(c(/C=N/N5CCN(C)CC5)c(O)c4c3C2=O)NC(=O)/C(C)=C\C=C\[C@H](C)[C@H](O)[C@@H](C)[C@@H](O)[C@@H](C)[C@H](OC(C)=O)[C@@H]1C [RIFAMPIN]
TERMINAL_BW [1]: 238.2 g | Bas [1]: 0% | Eos [1]: 1% | Fbg [1]: 236.6 mg/dL | Hb [1]: 13.8 g/dL | Ht [1]: 41.4% | MCV [1]: 62.9 fL | Mono [1]: 5.8% | Neu [1]: 7.4% | Plat [1]: 118.3 x10_4/uL | RBC [1]: 658.2 x10_4/ul | Ret [1]: 5.7% | KIDNEY_L [1]: 1 g | KIDNEY_R [1]: 1 g | KIDNEY_TOTAL [1]: 2 g | LIVER [1]: 11.3 g | ALP [1]: 841.6 IU/L | AST [1]: 60.4 IU/L | BUN [1]: 19 mg/dL | CRE [1]: 0.6 mg/dL | DBIL [1]: 0.02 mg/dL | GLC [1]: 189 mg/dL | IP [1]: 9 mg/dL | K [1]: 4.7 meq/L | LDH [1]: 98.8 IU/L | Na [1]: 139.2 meq/L | PL [1]: 135.4 mg/dL | RALB [1]: 3.6 g/dL | TBIL [1]: 0.4 mg/dL | TC [1]: 83 mg/dL | TG [1]: 71 mg/dL | TP [1]: 5.7 g/dL | gamma-GTP [1]: 1 IU/L | TERMINAL_BW [2]: 259.9 g | TERMINAL_BW [3]: 298.5 g | TERMINAL_BW [4]: 379.8 g | Bas [2]: 0% | Eos [2]: 0.6% | Fbg [2]: 239.6 mg/dL | Hb [2]: 14.1 g/dL | Ht [2]: 42.6% | MCV [2]: 62.5 fL | Mono [2]: 5.2% | Neu [2]: 7% | Plat [2]: 107 x10_4/uL | RBC [2]: 683.2 x10_4/ul | Ret [2]: 5.7% | WBC [2]: 130.9 x10_2/uL | Bas [3]: 0% | Eos [3]: 0.6% | Fbg [3]: 226.6 mg/dL | Hb [3]: 15.2 g/dL | Ht [3]: 44.9% | MCHC [3]: 33.8% | MCV [3]: 60.6 fL | Mono [3]: 3.2% | Neu [3]: 3.4% | Plat [3]: 115.2 x10_4/uL | RBC [3]: 742.6 x10_4/ul | Ret [3]: 3.5% | WBC [3]: 161.2 x10_2/uL | Bas [4]: 0% | Eos [4]: 1% | Fbg [4]: 226.4 mg/dL | Hb [4]: 15.2 g/dL | Ht [4]: 44.9% | MCHC [4]: 33.8% | MCV [4]: 55.8 fL | Mono [4]: 3.4% | Neu [4]: 9.6% | Plat [4]: 117.9 x10_4/uL | RBC [4]: 803.6 x10_4/ul | Ret [4]: 2.3% | WBC [4]: 138.4 x10_2/uL | KIDNEY_L [2]: 1.1 g | KIDNEY_R [2]: 1.1 g | KIDNEY_TOTAL [2]: 2.2 g | KIDNEY_L [3]: 1.1 g | KIDNEY_R [3]: 1.2 g | KIDNEY_TOTAL [3]: 2.3 g | KIDNEY_L [4]: 1.3 g | KIDNEY_R [4]: 1.3 g | KIDNEY_TOTAL [4]: 2.7 g | LIVER [2]: 11.6 g | LIVER [3]: 12.9 g | LIVER [4]: 14.8 g | ALP [2]: 813.8 IU/L | AST [2]: 64.6 IU/L | BUN [2]: 16.8 mg/dL | CRE [2]: 0.5 mg/dL | DBIL [2]: 0.032 mg/dL | GLC [2]: 193.6 mg/dL | IP [2]: 8 mg/dL | K [2]: 5 meq/L | LDH [2]: 89.4 IU/L | Na [2]: 139.2 meq/L | PL [2]: 145.4 mg/dL | RALB [2]: 3.9 g/dL | TBIL [2]: 0.3 mg/dL | TC [2]: 80.4 mg/dL | TG [2]: 90.6 mg/dL | TP [2]: 6 g/dL | gamma-GTP [2]: 2.4 IU/L | ALP [3]: 779.4 IU/L | AST [3]: 58.6 IU/L | BUN [3]: 18.2 mg/dL | CRE [3]: 0.5 mg/dL | DBIL [3]: 0.044 mg/dL | GLC [3]: 193.4 mg/dL | IP [3]: 7.7 mg/dL | K [3]: 5.2 meq/L | LDH [3]: 70.8 IU/L | Na [3]: 139.8 meq/L | PL [3]: 160.8 mg/dL | RALB [3]: 3.9 g/dL | TBIL [3]: 0.3 mg/dL | TC [3]: 83.6 mg/dL | TG [3]: 116.6 mg/dL | TP [3]: 6.1 g/dL | gamma-GTP [3]: 1.2 IU/L | ALP [4]: 610.4 IU/L | AST [4]: 55.6 IU/L | BUN [4]: 18.4 mg/dL | CRE [4]: 0.6 mg/dL | DBIL [4]: 0.038 mg/dL | GLC [4]: 185 mg/dL | IP [4]: 7 mg/dL | K [4]: 4.4 meq/L | LDH [4]: 76.2 IU/L | Na [4]: 140.6 meq/L | PL [4]: 159.6 mg/dL | RALB [4]: 4 g/dL | TBIL [4]: 0.3 mg/dL | TC [4]: 81.6 mg/dL | TG [4]: 132 mg/dL | TP [4]: 6.2 g/dL | gamma-GTP [4]: 1.2 IU/L | TERMINAL_BW [5]: 223.8 g | Bas [5]: 0% | Eos [5]: 1% | Fbg [5]: 229 mg/dL | Hb [5]: 14.3 g/dL | Ht [5]: 43.3% | MCHC [5]: 33.1% | MCV [5]: 63.4 fL | Mono [5]: 5% | Neu [5]: 2.6% | Plat [5]: 122.5 x10_4/uL | RBC [5]: 684 x10_4/ul | Ret [5]: 3.9% | WBC [5]: 123.3 x10_2/uL | KIDNEY_L [5]: 1 g | KIDNEY_R [5]: 1 g | KIDNEY_TOTAL [5]: 2.1 g | LIVER [5]: 10.2 g | ALP [5]: 864.8 IU/L | AST [5]: 61.8 IU/L | BUN [5]: 15.8 mg/dL | CRE [5]: 0.5 mg/dL | DBIL [5]: 0.1 mg/dL | GLC [5]: 189 mg/dL | IP [5]: 8.8 mg/dL | K [5]: 5.1 meq/L | LDH [5]: 204.6 IU/L | Na [5]: 138.8 meq/L | PL [5]: 108 mg/dL | RALB [5]: 3.7 g/dL | TBIL [5]: 0.6 mg/dL | TC [5]: 67 mg/dL | TG [5]: 48.2 mg/dL | TP [5]: 6 g/dL | gamma-GTP [5]: 1.2 IU/L | TERMINAL_BW [6]: 249 g | TERMINAL_BW [7]: 298.6 g | TERMINAL_BW [8]: 356.4 g | Bas [6]: 0% | Eos [6]: 0.4% | Fbg [6]: 226.8 mg/dL | Hb [6]: 13.8 g/dL | Ht [6]: 41.1% | MCHC [6]: 33.5% | MCV [6]: 62.9 fL | Mono [6]: 6.4% | Neu [6]: 7.4% | Plat [6]: 106.5 x10_4/uL | RBC [6]: 653.6 x10_4/ul | Ret [6]: 4.7% | WBC [6]: 165.2 x10_2/uL | Bas [7]: 0% | Eos [7]: 0.2% | Fbg [7]: 222.4 mg/dL | Hb [7]: 13.9 g/dL | Ht [7]: 41.2% | MCHC [7]: 33.7% | MCV [7]: 58.7 fL | Mono [7]: 3.4% | Neu [7]: 4.8% | Plat [7]: 114.3 x10_4/uL | RBC [7]: 702.8 x10_4/ul | Ret [7]: 4.2% | WBC [7]: 185.6 x10_2/uL | Bas [8]: 0% | Eos [8]: 0.6% | Fbg [8]: 214.4 mg/dL | Hb [8]: 14 g/dL | Ht [8]: 42.2% | MCHC [8]: 33.1% | MCV [8]: 53.7 fL | Mono [8]: 5.4% | Neu [8]: 8.8% | Plat [8]: 111.8 x10_4/uL | RBC [8]: 786.6 x10_4/ul | Ret [8]: 2.4% | WBC [8]: 116.3 x10_2/uL | KIDNEY_L [6]: 1 g | KIDNEY_R [6]: 1 g | KIDNEY_TOTAL [6]: 2 g | KIDNEY_L [7]: 1.2 g | KIDNEY_R [7]: 1.2 g | KIDNEY_TOTAL [7]: 2.4 g | KIDNEY_L [8]: 1.3 g | KIDNEY_R [8]: 1.3 g | KIDNEY_TOTAL [8]: 2.6 g | LIVER [6]: 12.2 g | LIVER [7]: 13.9 g | LIVER [8]: 16.8 g | ALP [6]: 976.6 IU/L | AST [6]: 62.2 IU/L | BUN [6]: 17.4 mg/dL | CRE [6]: 0.5 mg/dL | DBIL [6]: 0.2 mg/dL | GLC [6]: 181.2 mg/dL | IP [6]: 9 mg/dL | K [6]: 4.9 meq/L | LDH [6]: 158.4 IU/L | Na [6]: 139.8 meq/L | PL [6]: 139.6 mg/dL | RALB [6]: 3.9 g/dL | TBIL [6]: 0.5 mg/dL | TC [6]: 74.8 mg/dL | TG [6]: 75.8 mg/dL | TP [6]: 6.2 g/dL | gamma-GTP [6]: 1.8 IU/L | ALP [7]: 781 IU/L | AST [7]: 60.2 IU/L | CRE [7]: 0.5 mg/dL | DBIL [7]: 0.2 mg/dL | GLC [7]: 182.2 mg/dL | IP [7]: 8.3 mg/dL | K [7]: 4.9 meq/L | LDH [7]: 163.8 IU/L | Na [7]: 140.8 meq/L | PL [7]: 144.8 mg/dL | RALB [7]: 4.1 g/dL | TBIL [7]: 0.4 mg/dL | TC [7]: 82.2 mg/dL | TG [7]: 73 mg/dL | TP [7]: 6.1 g/dL | gamma-GTP [7]: 1.8 IU/L | ALP [8]: 771 IU/L | AST [8]: 54.8 IU/L | BUN [8]: 19.2 mg/dL | CRE [8]: 0.5 mg/dL | DBIL [8]: 0.3 mg/dL | GLC [8]: 185.4 mg/dL | K [8]: 4.4 meq/L | LDH [8]: 160.6 IU/L | Na [8]: 141.2 meq/L | PL [8]: 134 mg/dL | RALB [8]: 4.1 g/dL | TBIL [8]: 0.6 mg/dL | TC [8]: 76 mg/dL | TG [8]: 75.4 mg/dL | TP [8]: 6.3 g/dL | gamma-GTP [8]: 0.8 IU/L

— ChEMBL document CHEMBL3885861, “Open TG-GATES”
